{"source": "patent US20240010683A1", "about": "“Peptide Inhibitors of Human Mitochondrial Fission Protein 1 and Methods of Use” (The Medical College of Wisconsin, Inc., priority 2020, published 2024)", "key": {"HMEC-1 cells": {"system": "HMEC-1 cells", "experiment": "NO production and eNOS activation in HMEC-1 cells", "type": "cell-based, human", "conditions": "non-transfected HMEC-1 cells", "procedure": "FIG. 14. Phosphorylation of eNOS at Ser1177 and NO production increased in HMEC-1 cells upon activation with Ca+2 ionophore A23187 (A) representative western blot of p-eNOS-Ser1177) and β-actin with and without addition of A23187.(B) Quantitative measure of p-eNOS-(Ser1177) treated with and without A23187 (P=0.03, n=6). (C) NO production as measured using DAF2-DA (5 uM) increased upon addition of A23187 (n=4, P=0.02).\nFIG. 15. […] Cells exposed to L-NAME were incubated with L-NAME for 2 hours followed by a 15-minute incubation with DAF2-DA (5 uM) prior to measurement of fluorescence intensity.\nCells in Culture: To measure nitric oxide (NO) bioavailability in HMEC-1 cells and arterioles, a fluorescent NO marker, 4,5-diaminofluorescein diacetate (DAF2-DA from Cayman Chemical) was used. […] Fluorescence intensity was measured using a SPECTRAFluor Plus plate reader (Tecan, Morrisville, NC) using excitation and emission wavelengths of 485 nm and 535 nm, respectively. […] The arterioles were then washed with PBS buffer, mounted on a slide, and imaged by fluorescence microscopy. Untreated and unstained arterioles were used as controls for fluorescence background interference. Both treated and control vessels were measured using the same gain settings and the results were analyzed using Meta Morph 7.8 software (Universal imaging, West Chester, PA)."}, "cardiac myocytes": {"system": "cardiac myocytes", "conditions": "rat model of T2DM (OLEFT), cited from earlier work"}, "[1]": {"system": "human resistance arteries", "experiment": "Endothelium-dependent vasodilation to acetylcholine, resistance arteries from healthy subjects exposed to high or low glucose", "conditions": "for impaired endothelium-dependent vasodilation to acetylcholine: high glucose 33 mM six hours, 1-10 μM peptide", "text": "(§1) Human Resistance Artery Acquisition: Human resistance arteries from adipose samples were obtained from the upper outer quadrant of the gluteal adipose pad as previously described.^2,8,13,15,16 Briefly, following sterilization and anesthesia with 1% lidocaine, a 1-1.5 cm incision is made in the upper outer quadrant of the gluteal adipose pad. An approximately 8 cm^3 volume of adipose tissue was removed by sharp dissection. After achieving hemostasis, the wounds were closed with 1-2 absorbable deep dermal sutures and the epidermal layer closed using either Dermabond or steristrips.\n(§2) Transfection of human resistance arteries with siRNA constructs was performed as previously described.^8,13 Briefly, resistance arteries dissected from adipose tissue were suspended in a culture myograph chamber (204 CM, DMT, Ann Arbor). One end of the vessel was sutured onto a glass pipette within a micro-organ chamber. Prior to suturing the second end of the arteriole to a glass pipette, Fis1 siRNA, Drp1 siRNA (20 nM in optiMEM using Lipofectamine RNAiMax, Invitrogen) or control scrambled siRNA (20 nM) were gently injected, into the vessel lumen. The loose end of the vessel is then tied onto another glass pipette, and the vessel is suspended in the chamber and placed on a myograph stage bathed in physiological buffer at 37° C. and pressurized to 60 mmHg. Following 4-6 hours of incubation, the siRNA is slowly washed out of the lumen over 24 hours at a low shear rate (□<5 dyn/cm^2).\n(§3) Measurement of Endothelium-Dependent Vasoactivity: Transfected resistance arteries from healthy individuals were exposed to either normal glucose conditions (NG, glucose level 5 mM), 2 hours of low glucose (LG, glucose level 2.5 mM) or 6 hours of high glucose (HG, glucose level 33 mM). All studies in vessels from patients with T2DM were performed at 5 mM glucose. Vessels were pre-constricted approximately 50% of resting diameter with endothelin-1 (Sigma Aldrich, USA). The constricted arterioles are then exposed to acetylcholine (Ach) at serially increasing doses from 10^−10 to 10^−5 M, and changes in vessel diameter were measured using digital calipers and videomicroscopy. Following the 10^−5 M dose, vessels were exposed to 200 μM papaverine to test the smooth muscle reactivity. Following a 30-minute washout period, the same arterioles were re-constricted and incubated with L-NG-nitroarginine methyl ester (L-NAME, 100 μM), a direct inhibitor of nitric oxide synthase, for 30 minutes and vasodilation subsequently was remeasured following the exposure to Ach 10^−10 to 10^−5 M."}, "[2]": {"system": "vessels from T2DM subjects", "experiment": "Endothelium-dependent vasodilation to acetylcholine, resistance vessels from T2DM subjects", "parameters": "species or system human", "conditions": "for impaired endothelium-dependent vasodilation to acetylcholine: 5 mM glucose, 1 or 10 μM peptide", "text": "as §1, §2, §3"}, "[3]": {"system": "human resistance arteries", "experiment": "NO bioavailability (DAF2-DA fluorescence) in human resistance arteries", "conditions": "healthy vessels, HG and LG", "procedure": "Cells in Culture: To measure nitric oxide (NO) bioavailability in HMEC-1 cells and arterioles, a fluorescent NO marker, 4,5-diaminofluorescein diacetate (DAF2-DA from Cayman Chemical) was used. In a dark room, cells were incubated with or without 100 μM L-NAME for 2 hours followed by 15 minutes of incubation with DAF2-DA (5 μM) at 37° C. Fluorescence intensity was measured using a SPECTRAFluor Plus plate reader (Tecan, Morrisville, NC) using excitation and emission wavelengths of 485 nm and 535 nm, respectively. Human Resistance Arteries: Two vessels were obtained from a subset of healthy subjects and each vessel was cut in half to allow for four experimental conditions which included transfection with Fis1 siRNA or Drp1 siRNA with and without concomitant exposure to L-NAME for 30 minutes and transfection with scrambled siRNA control with and without concomitant exposure to L-NAME at room temperature. […] The arterioles were then washed with PBS buffer, mounted on a slide, and imaged by fluorescence microscopy. Untreated and unstained arterioles were used as controls for fluorescence background interference. Both treated and control vessels were measured using the same gain settings and the results were analyzed using Meta Morph 7.8 software (Universal imaging, West Chester, PA)."}, "ApoE knockout mice": {"system": "ApoE knockout mice", "conditions": "cited from earlier work"}, "[4]": {"system": "aortic endothelium of diabetic mice", "conditions": "cited from earlier work"}, "[5]": {"system": "resistance arterioles from healthy humans over-expressing Fis1 in the endothelium", "experiment": "Endothelium-dependent vasodilation in resistance arterioles over-expressing Fis1", "parameters": "species or system human", "conditions": "1 μM peptide, one hour of exposure", "procedure": "FIG. 19. Pep213 can reverse impaired endothelium-dependnet vasodilation in resistance arterioles. One hour of exposure to pep213 attached to a tat sequence to improve cell penetration (1 μM pep213-tat) reverses impaired endothelium-dependent vasodilation in resistance arterioles from healthy humans over-expressing Fis1 in the endothelium (overexpression of human Fis1 achieved using lentiviral vector to transfect the vessel with a plasmid for endothelial-specific over-expression of human Fis1). 1 μM of a scrambled peptide using the same amino acids as pep213 in a random order has no effect on endothelium dependent vasodilation to acetylcholine. Pep213-tat induce improves endothelium-dependent vasodilation in an eNOS-dependent manner (as determined by the loss in acetylcholine induced endothelium-dependent vasodilation with the use of eNOS inhibitor L-NAME). N=5, P<0.001 overall. *P<0.05 at the indicated doses of acetylcholine. Ach-acetylcholine.\nFurther the peptide of the present invention, e.g., Pep213, can reverse impaired endothelium-dependent vasodilation in resistance arterioles. […] Pep213-tat induce improves endothelium-dependent vasodilation in an eNOS-dependent manner (as determined by the loss in acetylcholine induced endothelium-dependent vasodilation with the use of eNOS inhibitor L-NAME). […]"}, "[6]": {"system": "human microvascular endothelial cells (HMVEC)", "experiment": "NO bioavailability (DAF2-DA) in endothelial cells treated with peptide", "type": "cell-based", "conditions": "1 μM peptide, one hour, 37° C.", "procedure": "FIG. 17. The bioavailability of nitric oxide (NO) increased in human microvascular endothelial cells (HMVEC) treated with novel peptide pep213. HMVEC cells were treated with 1 μM pep213-tat for one hour at 37° C. and NO was measured with diaminofluorescein-2 diacetate (DAF2-DA) staining. N=3,* P=0.04.\nCells in Culture: To measure nitric oxide (NO) bioavailability in HMEC-1 cells and arterioles, a fluorescent NO marker, 4,5-diaminofluorescein diacetate (DAF2-DA from Cayman Chemical) was used. In a dark room, cells were incubated with or without 100 μM L-NAME for 2 hours followed by 15 minutes of incubation with DAF2-DA (5 μM) at 37° C. Fluorescence intensity was measured using a SPECTRAFluor Plus plate reader (Tecan, Morrisville, NC) using excitation and emission wavelengths of 485 nm and 535 nm, respectively. […] The arterioles were then washed with PBS buffer, mounted on a slide, and imaged by fluorescence microscopy. Untreated and unstained arterioles were used as controls for fluorescence background interference. Both treated and control vessels were measured using the same gain settings and the results were analyzed using Meta Morph 7.8 software (Universal imaging, West Chester, PA)."}}, "note": "Entries after “also recorded” stand apart in the source; their conditions may differ."}
{"compound": "CNc1ccc2oc(C[C@H]3O[C@@]4(CC[C@H]3C)O[C@H]([C@H](C)C(=O)c3ccc[nH]3)[C@H](C)C[C@H]4C)nc2c1C(=O)O", "note": "[A23187]", "values": [{"measurement": "NO production (DAF2-DA fluorescence intensity)", "setting": "HMEC-1 cells", "result": "significant increase; also recorded: increased"}, {"measurement": "eNOS phosphorylation at Ser1177", "setting": "HMEC-1 cells", "result": "significant increase; also recorded: increased"}]}
{"compound": "OC[C@H]1O[C@@H](c2ccc(Cl)c(Cc3ccc(O[C@H]4CCOC4)cc3)c2)[C@H](O)[C@@H](O)[C@@H]1O", "note": "[Empagliflozin]", "values": [{"measurement": "mitochondrial superoxide dismutase, SOD2", "setting": "cardiac myocytes; cardiac myocytes", "result": "up-regulated"}, {"measurement": "Fis1 over-expression", "setting": "cardiac myocytes", "result": "reduced"}, {"measurement": "mitochondrial fission", "setting": "cardiac myocytes", "result": "reduced"}]}
{"compound": "COC(=O)[C@@H](N)CCCNC(=N)N[N+](=O)[O-]", "note": "[L-NAME, L-NG-nitroarginine methyl ester]", "values": [{"measurement": "effect of L-NAME on protective effect of Fis1 siRNA", "setting": "[1]; healthy vessels, HG and LG", "result": "completely blocked"}, {"measurement": "effect of L-NAME on improvement seen with pep213-tat", "setting": "[1]; healthy vessels, high glucose, L-NAME 100 μM", "result": "abolished the improvements; also recorded: reversed all improvements"}, {"measurement": "effect of L-NAME on improvement seen with pep213-TAT", "setting": "[2]; T2DM vessels, L-NAME 100 μM", "result": "abolished the improvements"}, {"measurement": "effect of L-NAME on favorable effect of Fis1 siRNA", "setting": "[2]; vessels from diabetic subjects", "result": "completely attenuated"}, {"measurement": "effect of L-NAME on Fis1 siRNA increase in DAF2-DA fluorescence", "setting": "[3]", "result": "completely abolished"}]}
{"compound": "CN(C)C(=N)N=C(N)N", "note": "[Metformin]", "values": [{"measurement": "atherosclerotic formation", "setting": "ApoE knockout mice", "result": "reduces"}]}
{"compound": "N#C[C@@H]1CCCN1C(=O)CNC12CC3CC(CC(O)(C3)C1)C2", "note": "[vildagliptin]", "values": [{"measurement": "NO production", "setting": "[4]; aortic endothelium of diabetic mice", "result": "increasing"}, {"measurement": "Drp1 translocation from the cytosol", "setting": "[4]; diabetic mice", "result": "reduces"}, {"measurement": "ROS production", "setting": "[4]; diabetic mice", "result": "reduces"}, {"measurement": "expression of Fis1 and Drp1", "setting": "[4]; diabetic mice", "result": "reduces"}, {"measurement": "mitochondrial fission", "setting": "[4]; diabetic mice", "result": "reduces"}]}
{"compound": "YGRKKRRQRRRGSGSGSSHKHDPLPYPHFLL (Synthetic - Pep213 fused to TAT (pep213-TAT))", "values": [{"measurement": "papaverine response (smooth muscle reactivity)", "setting": "[1]; 200 μM papaverine, healthy and T2DM vessels", "result": "did not impact"}, {"measurement": "impaired endothelium-dependent vasodilation to acetylcholine", "setting": "[1]; healthy vessels", "result": "reversed"}, {"measurement": "impaired endothelium-dependent vasodilation to acetylcholine", "setting": "[1]; healthy vessels, listed as Pep213-tat", "result": "reversed"}, {"measurement": "impaired endothelium-dependent vasodilation to acetylcholine", "setting": "[1]; healthy vessels, listed as Tat sequence-linked pep213", "result": "improved"}, {"measurement": "impaired endothelium-dependent vasodilation to acetylcholine", "setting": "[1]; healthy vessels, listed as pep213-TAT", "result": "significant improvement"}, {"measurement": "impaired endothelium-dependent vasodilation to acetylcholine", "setting": "[2]; T2DM vessels", "result": "reverses"}, {"measurement": "impaired endothelium-dependent vasodilation to acetylcholine", "setting": "[2]; T2DM vessels, listed as Pep213-tat", "result": "reversed"}, {"measurement": "impaired endothelium-dependent vasodilation to acetylcholine", "setting": "[2]; T2DM vessels, listed as Tat sequence-linked pep213", "result": "improved"}, {"measurement": "impaired endothelium-dependent vasodilation to acetylcholine", "setting": "[2]; T2DM vessels, listed as pep213-TAT", "result": "significant improvement"}, {"measurement": "impaired endothelium-dependent vasodilation to acetylcholine", "setting": "[5]", "result": "reverses"}, {"measurement": "NO bioavailability (DAF2-DA fluorescence)", "setting": "[6]", "result": "increased"}, {"measurement": "NO bioavailability (DAF2-DA fluorescence)", "setting": "[6]; listed as pep213-TAT", "result": "significant increase"}]}
